Reference: patent US6914045B2, “Glycopeptide antibiotics” (Wyeth Holdings Corporation, priority 2001, dated 2005)
≈ marks a conversion by molar mass, not a printed value. Values belong to the compound of their own block, whether it stands above or below them.

Key:
Enterococcus sp. = experiment: in vitro antibacterial evaluation, MIC by broth dilution; format: cell-based; details: broth dilution, 18 hours at 35° C.
Outline: (§1)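 Following National Committee for Clinical Laboratory Standards recommendations (M7-A2), susceptibility was measured by dilution in Muller-Hinton II […]. Bacteria were seeded at 5×10^5 CFU/mL against compound concentrations from 64 down to 0.06 μg/mL.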

Staphylococcus sp. = experiment: as above; format: cell-based; details: broth dilution, 18 hours at 35° C.; for MIC Staphylococcus aureus (ATCC 29213): strain ATCC 29213; for MIC Staphylococcus aureus (GC 1131): strain GC 1131; for MIC Staphylococcus aureus (GC 3051): strain GC 3051; for MIC Staphylococcus aureus (GC 3053): strain GC 3053; for MIC Staphylococcus aureus (GC 4541): strain GC 4541; for MIC Staphylococcus aureus (GC 4542): strain GC 4542; for MIC Staphylococcus aureus-SMITH (GC 4543): strain GC 4543; for MIC Staphylococcus aureus (GC 4544): strain GC 4544; for MIC Staphylococcus aureus (GC 4545): strain GC 4545; for MIC Staphylococcus haemolyticus (GC 4546): strain GC 4546; for MIC Coagulase Negative Staphylococcus (GC 4547): strain GC 4547; for MIC Coagulase Negative Staphylococcus (GC 4548): strain GC 4548; for MIC Coagulase Negative Staphylococcus (GC 4549): strain GC 4549; for MIC Coagulase Negative Staphylococcus (GC 4551): strain GC 4551
Outline: as §1

Streptococcus sp. = experiment: as above; format: cell-based; details: broth dilution, 18 hours at 35° C.
Outline: as §1

Escherichia coli = experiment: as above; format: cell-based; details: 18 hours at 35° C.
Outline: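 Broth dilution in Muller-Hinton II medium per NCCLS standard M7-A2, with an inoculum of 5×10^5 CFU/mL and antibiotic tested over 64-0.06 μg/mL. MIC was taken as the lowest concentration inhibiting visible growth.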

[1] = anatomic pathology (histopathology of heart and kidney) in mice; format: in vivo; details: CD-1 mice, 20 mg/kg intravenously daily for 9 days, necropsy day 10, microscopic histopathology
Experimental: Samples of tissues from necropsied mice were formalin-fixed, paraffin-embedded, sectioned, stained with hematoxylin and eosin, and examined microscopically. Histopathologic findings were recorded. These findings were subjectively graded on a scale corresponding to slight, mild, moderate, marked and severe as compared to untreated controls.

[2] = Enterococcus faecalis (ATCC 29212)
[3] = Enterococcus faecalis (GC 4552)
[4] = Enterococcus faecalis (GC 4553)
[5] = Enterococcus faecalis (GC 4554)
[6] = Enterococcus faecalis (GC 6189)

MIC Enterococcus avium (GC 4558) (Enterococcus sp.; Enterococcus avium (GC 4558)): 128 µg/mL (≈ 87.6 µM)
MIC Enterococcus faecalis (ATCC 29212) (Enterococcus sp.; [2]): >128 µg/mL
MIC Enterococcus faecalis (GC 4552) (Enterococcus sp.; [3]): >128 µg/mL
MIC Enterococcus faecalis (GC 4553) (Enterococcus sp.; [4]): >128 µg/mL
MIC Enterococcus faecalis (GC 4554) (Enterococcus sp.; [5]): >128 µg/mL
MIC Enterococcus faecalis (GC 6189) (Enterococcus sp.; [6]): >128 µg/mL
MIC Enterococcus faecium (GC 2243) (Enterococcus sp.; Enterococcus faecium (GC 2243)): >128 µg/mL
MIC Enterococcus faecium (GC 4556) (Enterococcus sp.; Enterococcus faecium (GC 4556)): >128 µg/mL
MIC Enterococcus faecium (GC 4557) (Enterococcus sp.; Enterococcus faecium (GC 4557)): >128 µg/mL
MIC Enterococcus avium (GC 4558) (Enterococcus sp.): 128 µg/mL (≈ 87.6 µM)
MIC Enterococcus faecalis (ATCC 29212) (Enterococcus sp.): >128 µg/mL
MIC Enterococcus faecalis (GC 2242) (Enterococcus sp.): >128 µg/mL
MIC Enterococcus faecalis (GC 2691) (Enterococcus sp.): >128 µg/mL
MIC Enterococcus faecalis (GC 3059) (Enterococcus sp.): >128 µg/mL
MIC Enterococcus faecalis (GC 4552) (Enterococcus sp.): >128 µg/mL
MIC Enterococcus faecalis (GC 4553) (Enterococcus sp.): >128 µg/mL
MIC Enterococcus faecalis (GC 4554) (Enterococcus sp.): >128 µg/mL
MIC Enterococcus faecalis (GC 6189) (Enterococcus sp.): >128 µg/mL
MIC Enterococcus faecium (GC 2243) (Enterococcus sp.): >128 µg/mL
MIC Enterococcus faecium (GC 4556) (Enterococcus sp.): >128 µg/mL
MIC Enterococcus faecium (GC 4557) (Enterococcus sp.): >128 µg/mL
MIC Enterococcus faecalis (GC 2242) (Enterococcus sp.; strain GC 2242): >128 µg/mL
MIC Enterococcus faecalis (GC 2691) (Enterococcus sp.; strain GC 2691): >128 µg/mL
MIC Enterococcus faecalis (GC 3059) (Enterococcus sp.; strain GC 3059): >128 µg/mL
MIC Staphylococcus aureus (ATCC 29213) (Staphylococcus sp.): >128 µg/mL
MIC Staphylococcus aureus (GC 1131) (Staphylococcus sp.): >128 µg/mL
MIC Staphylococcus aureus (GC 3051) (Staphylococcus sp.): >128 µg/mL
MIC Staphylococcus aureus (GC 3053) (Staphylococcus sp.): >128 µg/mL
MIC Staphylococcus aureus (GC 4541) (Staphylococcus sp.): >128 µg/mL
MIC Staphylococcus aureus (GC 4542) (Staphylococcus sp.): >128 µg/mL
MIC Staphylococcus aureus-SMITH (GC 4543) (Staphylococcus sp.): >128 µg/mL
MIC Staphylococcus aureus (GC 4544) (Staphylococcus sp.): >128 µg/mL
MIC Staphylococcus aureus (GC 4545) (Staphylococcus sp.): >128 µg/mL
MIC Coagulase Negative Staphylococcus (GC 4547) (Staphylococcus sp.): >128 µg/mL
MIC Coagulase Negative Staphylococcus (GC 4548) (Staphylococcus sp.): >128 µg/mL
MIC Coagulase Negative Staphylococcus (GC 4549) (Staphylococcus sp.): >128 µg/mL
MIC Coagulase Negative Staphylococcus (GC 4551) (Staphylococcus sp.): >128 µg/mL
MIC Streptococcus agalactiae (GC 4564) (Streptococcus sp.): >128 µg/mL
MIC Streptococcus pneumoniae (ATCC 6301) (Streptococcus sp.): >128 µg/mL
MIC Streptococcus pneumoniae (GC 1894) (Streptococcus sp.): >128 µg/mL
MIC Streptococcus pneumoniae (GC 4565) (Streptococcus sp.): >128 µg/mL
MIC Streptococcus pyogenes (GC 4563) (Streptococcus sp.): >128 µg/mL
MIC Streptococcus pneumoniae (ATCC 6301) (Streptococcus sp.; strain ATCC 6301): >128 µg/mL
MIC Streptococcus pneumoniae (GC 1894) (Streptococcus sp.; strain GC 1894): >128 µg/mL
MIC Streptococcus pyogenes (GC 4563) (Streptococcus sp.; strain GC 4563): >128 µg/mL
MIC Streptococcus agalactiae (GC 4564) (Streptococcus sp.; strain GC 4564): >128 µg/mL
MIC Streptococcus pneumoniae (GC 4565) (Streptococcus sp.; strain GC 4565): >128 µg/mL
MIC Escherichia coli (ATCC 25922) (Escherichia coli): >128 µg/mL
MIC Escherichia coli (GC 4559) (Escherichia coli): >128 µg/mL
MIC Escherichia coli (GC 4560) (Escherichia coli): 8 µg/mL (≈ 5.47 µM)
Structure (SMILES): CC(c1ccccc1)C1NC(=O)CNC(=O)C(CO)NC(=O)C(C(O)C2CN(Cc3ccc(-c4ccccc4)cc3)C(=N)N2C2OC(CO)C(O)C(O)C2O)NC(=O)C(C(O)C2CNC(=N)N2)NC(=O)C(Cc2ccc(OC3OC(CO)C(OC4OC(CO)C(O)C(O)C4O)C(O)C3O)cc2)NC1=O (centres unmarked) [Example 66a]
MIC Staphylococcus haemolyticus (GC 4546) (Staphylococcus sp.): >128 µg/mL
Anatomical Pathology (Day 10), Heart [1]: 0
Anatomical Pathology (Day 10), Kidney [1]: ++

MIC Enterococcus avium (GC 4558) (Enterococcus sp.; Enterococcus avium (GC 4558)): 128 µg/mL (≈ 89.5 µM)
MIC Enterococcus faecalis (ATCC 29212) (Enterococcus sp.; [2]): >128 µg/mL
MIC Enterococcus faecalis (GC 4552) (Enterococcus sp.; [3]): >128 µg/mL
MIC Enterococcus faecalis (GC 4553) (Enterococcus sp.; [4]): >128 µg/mL
MIC Enterococcus faecalis (GC 4554) (Enterococcus sp.; [5]): >128 µg/mL
MIC Enterococcus faecalis (GC 6189) (Enterococcus sp.; [6]): >128 µg/mL
MIC Enterococcus faecium (GC 2243) (Enterococcus sp.; Enterococcus faecium (GC 2243)): >128 µg/mL
MIC Enterococcus faecium (GC 4556) (Enterococcus sp.; Enterococcus faecium (GC 4556)): >128 µg/mL
MIC Enterococcus faecium (GC 4557) (Enterococcus sp.; Enterococcus faecium (GC 4557)): 128 µg/mL (≈ 89.5 µM)
MIC Enterococcus avium (GC 4558) (Enterococcus sp.): 128 µg/mL (≈ 89.5 µM)
MIC Enterococcus faecalis (ATCC 29212) (Enterococcus sp.): >128 µg/mL
MIC Enterococcus faecalis (GC 2242) (Enterococcus sp.): >128 µg/mL
MIC Enterococcus faecalis (GC 2691) (Enterococcus sp.): >128 µg/mL
MIC Enterococcus faecalis (GC 3059) (Enterococcus sp.): >128 µg/mL
MIC Enterococcus faecalis (GC 4552) (Enterococcus sp.): >128 µg/mL
MIC Enterococcus faecalis (GC 4553) (Enterococcus sp.): >128 µg/mL
MIC Enterococcus faecalis (GC 4554) (Enterococcus sp.): >128 µg/mL
MIC Enterococcus faecalis (GC 6189) (Enterococcus sp.): >128 µg/mL
MIC Enterococcus faecium (GC 2243) (Enterococcus sp.): >128 µg/mL
MIC Enterococcus faecium (GC 4556) (Enterococcus sp.): >128 µg/mL
MIC Enterococcus faecium (GC 4557) (Enterococcus sp.): 128 µg/mL (≈ 89.5 µM)
MIC Enterococcus faecalis (GC 2242) (Enterococcus sp.; strain GC 2242): >128 µg/mL
MIC Enterococcus faecalis (GC 2691) (Enterococcus sp.; strain GC 2691): >128 µg/mL
MIC Enterococcus faecalis (GC 3059) (Enterococcus sp.; strain GC 3059): >128 µg/mL
MIC Staphylococcus aureus (ATCC 29213) (Staphylococcus sp.): >128 µg/mL
MIC Staphylococcus aureus (GC 1131) (Staphylococcus sp.): >128 µg/mL
MIC Staphylococcus aureus (GC 3051) (Staphylococcus sp.): >128 µg/mL
MIC Staphylococcus aureus (GC 3053) (Staphylococcus sp.): >128 µg/mL
MIC Staphylococcus aureus (GC 4541) (Staphylococcus sp.): >128 µg/mL
MIC Staphylococcus aureus (GC 4542) (Staphylococcus sp.): >128 µg/mL
MIC Staphylococcus aureus-SMITH (GC 4543) (Staphylococcus sp.): >128 µg/mL
MIC Staphylococcus aureus (GC 4544) (Staphylococcus sp.): >128 µg/mL
MIC Staphylococcus aureus (GC 4545) (Staphylococcus sp.): >128 µg/mL
MIC Coagulase Negative Staphylococcus (GC 4547) (Staphylococcus sp.): >128 µg/mL
MIC Coagulase Negative Staphylococcus (GC 4548) (Staphylococcus sp.): >128 µg/mL
MIC Coagulase Negative Staphylococcus (GC 4549) (Staphylococcus sp.): >128 µg/mL
MIC Coagulase Negative Staphylococcus (GC 4551) (Staphylococcus sp.): >128 µg/mL
MIC Coagulase Negative Staphylococcus (GC 6257) (Staphylococcus sp.; strain GC 6257): >128 µg/mL
MIC Streptococcus agalactiae (GC 4564) (Streptococcus sp.): 128 µg/mL (≈ 89.5 µM)
MIC Streptococcus pneumoniae (ATCC 6301) (Streptococcus sp.): 128 µg/mL (≈ 89.5 µM)
MIC Streptococcus pneumoniae (GC 1894) (Streptococcus sp.): 128 µg/mL (≈ 89.5 µM)
MIC Streptococcus pneumoniae (GC 4565) (Streptococcus sp.): 128 µg/mL (≈ 89.5 µM)
MIC Streptococcus pyogenes (GC 4563) (Streptococcus sp.): >128 µg/mL
MIC Streptococcus pneumoniae (ATCC 6301) (Streptococcus sp.; strain ATCC 6301): 128 µg/mL (≈ 89.5 µM)
MIC Streptococcus pneumoniae (GC 1894) (Streptococcus sp.; strain GC 1894): 128 µg/mL (≈ 89.5 µM)
MIC Streptococcus pyogenes (GC 4563) (Streptococcus sp.; strain GC 4563): >128 µg/mL
MIC Streptococcus agalactiae (GC 4564) (Streptococcus sp.; strain GC 4564): 128 µg/mL (≈ 89.5 µM)
MIC Streptococcus pneumoniae (GC 4565) (Streptococcus sp.; strain GC 4565): 128 µg/mL (≈ 89.5 µM)
MIC Escherichia coli (ATCC 25922) (Escherichia coli): >128 µg/mL
MIC Escherichia coli (GC 4559) (Escherichia coli): >128 µg/mL
MIC Escherichia coli (GC 4560) (Escherichia coli): >128 µg/mL
Structure (SMILES): CC(c1ccccc1)C1NC(=O)CNC(=O)C(CO)NC(=O)C(C(O)C2CN(Cc3ccc(C(=O)O)cc3)C(=N)N2C2OC(CO)C(O)C(O)C2O)NC(=O)C(C(O)C2CNC(=N)N2)NC(=O)C(Cc2ccc(OC3OC(CO)C(OC4OC(CO)C(O)C(O)C4O)C(O)C3O)cc2)NC1=O (stereo not drawn) [Example 69, Cyclo[glycyl-β-methylphenylalanyl-O-(4-O-hexopyranosylhexopyranosyl)tyrosyl-3-(2-iminoimidazolidin-4-yl)seryl-3-[1-(4-carboxybenzyl)-2-imino-3-hexopyranosylimidazolidin-4-yl]-serylseryl]]
MIC Staphylococcus haemolyticus (GC 4546) (Staphylococcus sp.): >128 µg/mL
Anatomical Pathology (Day 10), Heart [1]: 0
Anatomical Pathology (Day 10), Kidney [1]: 0
